Experiment: gradient 5% acetonitrile 3 min, to 50% in 2 min, to 85% in 15 min, held 3 min, 100 µL/min
Settings: column: Zorbax Extend-C18 2.1 x 50 mm; eluents: water / acetonitrile, 0.1% formic acid
Summary of the method: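 Mixtures of ~100 pure standards were chromatographed on a Zorbax Extend-C18 column (2.1 × 50 mm, 1.8 μm) at 100 μL/min using water and acetonitrile, each with 0.1% formic acid. Detection used a quadrupole time-of-flight mass spectrometer in positive and negative ionization mode, and data collection spanned 3 months. Retention time was obtained from adduct peaks picked computationally and each checked manually.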

| Structure (SMILES) | RP-LC retention time |
| --- | --- |
| Cc1cc(C)cc(NC(=O)c2c(C)oc3nc(C)nc(N4CCOCC4)c23)c1 | 888 s |
| O=C(Nc1cccc(-c2ccccc2)c1)N1CCN(C(=O)Nc2cccc(-c3ccccc3)c2)CC1 | 980 s |
| O=C(c1ccccn1)N1CC(c2nc(-c3ccccc3)no2)C2(CCOCC2)C1 (centres undefined) | 743 s |
| COCCn1nc2n(c1=O)CCC1(CC2)CCN(C(=O)C2CCOC2)CC1 (centres undefined) | 587 s |
| Cc1nc2ccccc2nc1NS(=O)(=O)c1ccc(N)cc1 | 764 s |
| COc1cccc(Cn2cc(S(=O)(=O)N3CCCCCC3)ccc2=O)c1 | 895 s |
| COc1ncc(C(=O)N2CCN(c3ccccc3Cl)CC2)cn1 | 811 s |
| CNC(=O)[C@@H]1CN(C(=O)c2sc(C)nc2C)C[C@H]1c1n[nH]c(C)n1 | 559 s |
| COc1ccc(-c2noc(CN3CCN(c4ccccn4)CC3)n2)cc1 | 621 s |
| Cc1nsc2ncc(C(=O)N3CCOCC3)c(N3CCC(C(=O)Nc4cccc(Cl)c4)CC3)c12 | 848 s |
| COc1ccc(Cc2nc3nccc(-c4ccccn4)n3n2)cc1 | 768 s |
| Cc1cccc(-c2[nH]ncc2-c2ccc3ncccc3n2)n1 | 635 s |
| O=C(NCc1cccnc1)C1c2ccccc2C(=O)N(Cc2ccccc2)C12CCCC2 (centres undefined) | 649 s |
| COc1ccc(C)cc1NC(=O)C1CCN(c2cc(N3CCSCC3)ncn2)CC1 | 717 s |
| O=C(NCCCN1CCCC1=O)C1CCN(c2cncnc2N2CCOCC2)CC1 | 535 s |
| O=C(c1ccc(Cl)cc1)N1CCN(c2cnn3c(C4CC4)nnc3c2)CC1 | 683 s |
| CCCS(=O)(=O)N1CCC2(CC1)CC(OCc1ccccc1)CCO2 (centres undefined) | 984 s |
| CCOC(=O)c1[nH]c(C)c(CCC(=O)NC(C)C(=O)N2CCCCC2)c1C (centres undefined) | 570 s |

| Structure (SMILES) | RP-LC retention time |
| --- | --- |
| O=C(NCc1ccccn1)C1CCCN(C(=O)NCc2cccs2)C1 (centres undefined) | 550 s |
| CCc1nc2cc(-c3noc(-c4ccc5ccccc5n4)n3)ccc2o1 | 1110 s |
| Cc1ccc(N2CC(c3noc(C4(c5ccccc5)CC4)n3)CC2=O)cc1 (centres undefined) | 989 s |
| CCOC(=O)c1c(S(=O)(=O)N2CCC(C(=O)Nc3ccc(F)cc3C)CC2)c(C)n(CC)c1C | 885 s |
| CC(C)c1nnc(-c2ccc(=O)n(CC(=O)N3CCC4(CC3)OCCO4)c2)o1 | 609 s |
| Cc1cccc(C)c1Nc1c(-c2ccc(N(C)C)cc2)nc2ncccn12 | 747 s |
| Cc1nnc(-c2ccc(S(=O)(=O)N3CCCC(C)C3)o2)o1 (centres undefined) | 836 s |
| COc1ccc(N2CC(c3nc(-c4ccccc4F)no3)CC2=O)cc1 (centres undefined) | 865 s |
| CCOC(=O)N1CCC(NC(=O)C2(c3ccc(F)cc3)CC2)CC1 | 796 s |
| Cc1cccc(Nc2c(-c3ccc(O)cc3)nc3ncccn23)c1 | 700 s |
| O=c1c2cnc3nc(-c4ccccc4Cl)nn3c2ccn1-c1ncn[nH]1 | 670 s |
| CN(c1ccc(F)cc1)S(=O)(=O)N1CCCC(C(=O)NCCCN2CCc3ccccc3C2)C1 (centres undefined) | 706 s |
| O=C(NC1CC1)C1CCN(c2nnc(-c3ccccc3)o2)CC1 | 657 s |
| Cn1nccc1-c1cccc(-c2noc(-c3ccc(F)cc3Cl)n2)c1 | 1190 s |
| CCn1nc2ccc(S(=O)(=O)N3CCCCC3)cn2c1=O | 744 s |
| COc1ccc(N2CCCCn3c2nc2c3c(=O)n(C)c(=O)n2C)cc1 | 759 s |
| Cc1nnc(-c2ccc(S(=O)(=O)N3CCCCCC3)o2)o1 | 834 s |
| COc1cc2c(cc1OC)CN(S(=O)(=O)CCCNC(=O)CC1CCCCC1)CC2 | 767 s |

The next lines start with the values.

| RP-LC retention time | Structure (SMILES) |
| --- | --- |
| 565 s | O=c1cccnn1CCNS(=O)(=O)c1cccnc1 |
| 670 s | CN(C(=O)c1ccc2c(c1)OCO2)C1CCc2nn(CC3CC3)c(=O)n2CC1 (centres undefined) |
| 909 s | Cc1cc2nn(CC(=O)NC3CCCCC3)c(=O)n2c(Nc2ccc(F)cc2)n1 |
| 861 s | Cc1ccc(C(=O)N(C)Cc2cccnc2Oc2ccccc2)cn1 |
| 886 s | Cc1[nH]nc(-c2cc(S(=O)(=O)NCCc3ccccc3)c(C)s2)c1C |
| 864 s | Cc1ccc(CNC(=O)C2CCCN(S(=O)(=O)c3cc(-c4noc(C)n4)cs3)C2)o1 (centres undefined) |
| 1060 s | CCOC(=O)Cn1c(=O)c2cnc(-c3ccc(C)cc3)nc2n(C)c1=O |
| 784 s | COC(=O)Cn1c(C)cc(=O)n2nc(-c3cccc(C)c3)nc12 |
| 1120 s | CCc1cccc(NC(=O)c2csc(-c3cn(C)c4ncccc34)n2)c1 |
| 641 s | CC1CCCN(CCCNC(=O)c2nc3nc(-c4ccco4)cc(C(F)(F)F)n3n2)C1 (centres undefined) |
| 716 s | COc1ccc(NC(=O)NC2CCN(c3ccc(F)cc3)C2=O)c(OC)c1 (centres undefined) |
| 639 s | COc1ccccc1C(CNC(=O)c1cc(=O)c2ccc(C)c(C)c2o1)N(C)C (centres undefined) |
| 720 s | O=C(CC(=O)N1CCN(c2ccccc2)CC1)Nc1ccc2nc3n(c(=O)c2c1)CCCCC3 |
| 837 s | CCN1c2cc(Cl)ccc2C(=O)NC12CCN(C(=O)Nc1ccccc1C)CC2 |
| 620 s | Cc1cc(OCC(=O)NCc2ccccc2Cl)nc(N2CCCC2)n1 |
| 677 s | COCc1c(C(=O)O)nnn1-c1ccc(OC)cc1 |
| 578 s | CCN1CCN(c2cc(C)c3cc(NC(=O)Cc4cccs4)ccc3n2)CC1 |

| RP-LC retention time | Structure (SMILES) |
| --- | --- |
| 574 s | CS(=O)(=O)N1CCCc2cc(C(=O)NCc3cccnc3)ccc21 |
| 791 s | CCc1ccccc1NC(=O)N1CCC2(CC1)NC(=O)c1cc(F)ccc1N2C |
| 1050 s | CCOC(=O)c1sc(NC(=O)COc2ccccc2Br)nc1C |
| 915 s | Cc1cc(N2CCC(NC(=O)Nc3ccccc3C(F)(F)F)C2=O)ccc1F (centres undefined) |
| 768 s | COc1cccc(NC(=O)Cn2nc3nc(N4CCCC(C)C4)ccn3c2=O)c1 (centres undefined) |
| 740 s | Cc1noc2nc(C)n(CC(=O)NCc3cccc(F)c3)c(=O)c12 |
| 610 s | CC(CCc1ccccc1)NCc1ccc2c(c1)n(C)c(=O)n2C (centres undefined) |
| 687 s | Cn1nc2ccc(S(=O)(=O)N3CCSCC3)cn2c1=O |
| 964 s | CCSc1nc2ccc(NS(=O)(=O)c3ccccc3F)cc2s1 |
| 702 s | CC(=O)N1CCc2cc(N3CC(C(=O)NCc4cccc(Cl)c4)CC3=O)ccc21 (centres undefined) |
| 625 s | COc1cccc(CNC(=O)N2CCc3nc[nH]c3C2)c1 |
| 602 s | CC(C)C(=O)Nc1c(-c2ccc(F)cc2)nc2ccccn12 |
| 596 s | CCCNC(=O)c1ccc2ncn(C)c(=O)c2c1 |
| 672 s | Cc1cc(=O)n(CC(=O)Nc2ccc(Cl)cc2)c(N2CCCC2)n1 |
| 773 s | CCn1ccc2sc(C)c(C(=O)N3CCN(c4ccccc4)CC3)c2c1=O |
| 884 s | COc1ccc(Br)cc1CNC(=O)c1ccc2c(c1)NC(=O)C1CCCCN21 (centres undefined) |

Source: the METLIN SMRT retention time set (Domingo-Almenara et al. 2019)
